Legend:
ABL1-phosphorylated = molecular target: T1, ABL1-phosphorylated (Homo sapiens, UniProt P00519); test: KINOMEscan scanEDGE binding; details: KinomeEDGE scan, compound at 1 μΜ
T1 construct: purchased Eurofins/DiscoverX KINOMEscan (scanEDGE panel)

FGFR1 [1] = molecular target: T2, FGFR1 (Homo sapiens, UniProt P11362); test: SelectScreen kinase activity assay; type: biochemical; set-up: purchased Invitrogen (SelectScreen service)
Procedure: (§1) BRAF kinase assays were performed using the Z’-LYTE™ enzymatic assay (Invitrogen, USA). […] Titrations were performed using a 1:3 dilution. Assays were performed using SelectScreen (Invitrogen).

PDFGRα = molecular target: T3, PDFGRα (Homo sapiens, UniProt P16234); test: SelectScreen kinase activity assay; type: biochemical; details: 100 μM ATP
T3 construct: purchased Invitrogen (SelectScreen service)
Procedure: as §1

BRAF^V600E = BRAF^V600E (Homo sapiens, UniProt P15056, V600E); test: BRAF kinase activity assay (western blot); type: biochemical; set-up: purchased Invitrogen (SelectScreen service)
Chain of BRAF^V600E (P15056 whole entry V600E): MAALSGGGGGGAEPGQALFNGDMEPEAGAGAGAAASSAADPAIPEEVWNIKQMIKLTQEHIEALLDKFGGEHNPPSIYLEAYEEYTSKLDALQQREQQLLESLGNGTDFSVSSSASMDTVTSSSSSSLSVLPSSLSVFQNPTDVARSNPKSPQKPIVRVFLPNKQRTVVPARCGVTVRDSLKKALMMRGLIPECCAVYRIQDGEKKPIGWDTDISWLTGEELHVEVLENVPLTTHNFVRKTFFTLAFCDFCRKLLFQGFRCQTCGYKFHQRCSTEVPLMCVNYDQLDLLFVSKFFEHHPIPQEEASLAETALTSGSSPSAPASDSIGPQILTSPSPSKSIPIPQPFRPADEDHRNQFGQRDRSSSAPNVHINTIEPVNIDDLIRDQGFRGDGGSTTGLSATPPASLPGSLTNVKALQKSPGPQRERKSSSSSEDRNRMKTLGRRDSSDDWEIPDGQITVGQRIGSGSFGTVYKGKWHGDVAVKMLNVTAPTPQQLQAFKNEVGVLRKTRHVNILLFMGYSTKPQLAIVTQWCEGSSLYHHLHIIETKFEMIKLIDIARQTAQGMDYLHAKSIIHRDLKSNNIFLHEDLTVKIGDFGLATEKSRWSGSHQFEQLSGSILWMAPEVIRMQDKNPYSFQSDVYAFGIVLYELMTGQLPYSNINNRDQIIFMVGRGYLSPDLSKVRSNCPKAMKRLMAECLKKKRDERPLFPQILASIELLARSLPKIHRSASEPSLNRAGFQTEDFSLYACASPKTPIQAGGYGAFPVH
Procedure: Kinase activity assays were performed using BRAF Kinase Assay Kit (#17-359), CRAF Kinase Assay Kit (#17-360) and MAP Kinase/Erk Assay Kit (#17-191), following protocols by the provider (Millipore) with some modifications. In brief, BRAF and CRAF, and MEK1 recombinant proteins were incubated for 15 min with inhibitors, then corresponding substrates were added and incubated for 30 min at 30 °C and assayed via western blot.

AXL = molecular target: T4, AXL (Homo sapiens, UniProt P30530); test: KINOMEscan scanEDGE binding; details: KinomeEDGE scan, compound at 1 μΜ
T4 construct: purchased Eurofins/DiscoverX KINOMEscan (scanEDGE panel)
T4 sequence (P30530 26-894): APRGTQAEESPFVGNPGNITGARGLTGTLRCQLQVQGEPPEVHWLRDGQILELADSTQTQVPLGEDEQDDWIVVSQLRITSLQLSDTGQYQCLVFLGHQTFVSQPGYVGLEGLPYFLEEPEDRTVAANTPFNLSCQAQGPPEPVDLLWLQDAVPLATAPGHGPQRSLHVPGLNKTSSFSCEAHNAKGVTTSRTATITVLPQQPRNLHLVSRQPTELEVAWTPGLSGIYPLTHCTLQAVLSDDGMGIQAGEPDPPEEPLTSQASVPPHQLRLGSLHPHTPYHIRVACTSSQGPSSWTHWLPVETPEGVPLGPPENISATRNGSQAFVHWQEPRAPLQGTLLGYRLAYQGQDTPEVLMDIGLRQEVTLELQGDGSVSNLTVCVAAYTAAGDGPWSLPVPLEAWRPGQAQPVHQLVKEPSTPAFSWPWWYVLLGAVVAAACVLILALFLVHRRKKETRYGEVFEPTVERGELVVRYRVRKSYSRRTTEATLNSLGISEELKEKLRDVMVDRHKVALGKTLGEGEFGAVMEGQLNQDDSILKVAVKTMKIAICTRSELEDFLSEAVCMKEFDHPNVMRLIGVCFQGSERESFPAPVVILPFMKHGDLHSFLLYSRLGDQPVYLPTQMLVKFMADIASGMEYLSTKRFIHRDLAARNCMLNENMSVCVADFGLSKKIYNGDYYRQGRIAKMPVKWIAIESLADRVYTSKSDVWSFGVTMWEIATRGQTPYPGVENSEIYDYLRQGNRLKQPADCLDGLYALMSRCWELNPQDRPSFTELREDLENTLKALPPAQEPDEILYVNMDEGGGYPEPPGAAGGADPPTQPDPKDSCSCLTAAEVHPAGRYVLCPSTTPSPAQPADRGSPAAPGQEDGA

PKAC-alpha = molecular target: T5, PKAC-alpha (Homo sapiens, UniProt P17612); test: KINOMEscan scanEDGE binding; details: KinomeEDGE scan, compound at 1 μΜ
T5 construct: purchased Eurofins/DiscoverX KINOMEscan (scanEDGE panel)

FGFR1 [2] = molecular target: T2, FGFR1; test: KINOMEscan scanEDGE binding; set-up: purchased Eurofins/DiscoverX KINOMEscan (scanEDGE panel); details: KinomeEDGE scan, compound at 1 μΜ
[3] = standard of care dose for CML; cited from earlier work
[4] = molecular target: T6, JAK2(JH1domain-catalytic) (Homo sapiens, UniProt O60674); test: KINOMEscan scanEDGE binding; details: KinomeEDGE scan, compound at 1 μΜ
T6 construct: JAK2(JH1domain-catalytic); purchased Eurofins/DiscoverX KINOMEscan (scanEDGE panel)

EPHA2 = molecular target: T7, EPHA2 (Homo sapiens, UniProt P29317); test: KINOMEscan scanEDGE binding; details: KinomeEDGE scan, compound at 1 μΜ
T7 construct: purchased Eurofins/DiscoverX KINOMEscan (scanEDGE panel)

p38-alpha = molecular target: T8, p38-alpha (Homo sapiens, UniProt Q16539); test: KINOMEscan scanEDGE binding; details: KinomeEDGE scan, compound at 1 μΜ
T8 construct: purchased Eurofins/DiscoverX KINOMEscan (scanEDGE panel)

EGFR(L858R) = molecular target: T9, EGFR(L858R) (Homo sapiens, UniProt P00533, L858R); test: KINOMEscan scanEDGE binding; details: KinomeEDGE scan, compound at 1 μΜ
T9 construct: purchased Eurofins/DiscoverX KINOMEscan (scanEDGE panel)

ERBB4 = molecular target: T10, ERBB4 (Homo sapiens, UniProt Q15303); test: KINOMEscan scanEDGE binding; details: KinomeEDGE scan, compound at 1 μΜ
T10 construct: purchased Eurofins/DiscoverX KINOMEscan (scanEDGE panel)
T10 sequence (Q15303 26-1308): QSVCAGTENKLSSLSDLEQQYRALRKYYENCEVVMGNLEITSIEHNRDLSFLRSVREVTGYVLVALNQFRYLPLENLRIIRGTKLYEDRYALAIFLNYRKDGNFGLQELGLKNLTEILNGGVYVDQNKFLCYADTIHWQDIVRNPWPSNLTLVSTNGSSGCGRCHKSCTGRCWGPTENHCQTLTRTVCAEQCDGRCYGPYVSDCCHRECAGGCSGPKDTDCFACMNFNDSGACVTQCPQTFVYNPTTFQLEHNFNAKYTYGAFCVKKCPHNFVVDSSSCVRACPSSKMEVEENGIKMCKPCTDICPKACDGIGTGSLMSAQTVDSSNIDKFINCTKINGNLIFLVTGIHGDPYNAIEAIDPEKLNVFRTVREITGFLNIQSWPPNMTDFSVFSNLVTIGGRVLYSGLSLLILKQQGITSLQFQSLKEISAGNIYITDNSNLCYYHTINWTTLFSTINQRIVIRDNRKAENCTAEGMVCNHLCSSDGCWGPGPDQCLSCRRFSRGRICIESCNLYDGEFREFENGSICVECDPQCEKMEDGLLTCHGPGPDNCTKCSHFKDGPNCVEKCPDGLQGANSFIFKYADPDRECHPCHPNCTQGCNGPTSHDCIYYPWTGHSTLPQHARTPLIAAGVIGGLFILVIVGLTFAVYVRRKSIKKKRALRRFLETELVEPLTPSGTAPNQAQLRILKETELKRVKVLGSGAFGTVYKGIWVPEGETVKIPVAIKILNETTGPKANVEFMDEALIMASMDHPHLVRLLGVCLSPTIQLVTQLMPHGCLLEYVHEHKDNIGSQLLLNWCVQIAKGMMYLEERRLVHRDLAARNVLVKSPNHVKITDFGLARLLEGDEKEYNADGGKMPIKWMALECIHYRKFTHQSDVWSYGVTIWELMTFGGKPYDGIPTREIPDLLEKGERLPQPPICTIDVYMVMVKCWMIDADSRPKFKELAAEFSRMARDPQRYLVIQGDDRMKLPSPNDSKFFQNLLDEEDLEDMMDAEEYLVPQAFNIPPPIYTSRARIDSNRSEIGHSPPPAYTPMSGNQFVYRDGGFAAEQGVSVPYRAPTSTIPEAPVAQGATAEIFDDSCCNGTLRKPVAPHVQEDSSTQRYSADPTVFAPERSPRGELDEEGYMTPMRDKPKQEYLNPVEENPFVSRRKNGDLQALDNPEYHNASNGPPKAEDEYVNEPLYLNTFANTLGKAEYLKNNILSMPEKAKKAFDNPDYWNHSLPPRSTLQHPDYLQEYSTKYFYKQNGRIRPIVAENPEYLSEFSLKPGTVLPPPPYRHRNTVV

[5] = system: melanoma cells dependent on BRAF^V600E, p61BRAF^V600E, and RAS^MUT/BRAF^WT; test: 3D culture colony formation; type: cell-based; details: 0.1-10 μM, 5th day of culture, compared to Vemurafenib
Procedure: 3D laminin-rich extracellular matrix cultures were prepared by trypsinization of melanoma cells from tissue culture plastic, seeding of single cells on top of a thin layer of Growth Factor-Reduced Matrigel (BD Biosciences, Franklin Lakes, NJ), and the addition of a medium containing 5% Matrigel. The cells were seeded at the density of 40,000 cells per cm^2. All 3D cell cultures were performed in DMEM supplemented with 5 μg/mL bovine insulin with Zinc (Gibco), 15 μg/mL bovine pituitary extract (Gibco), 0.5 ng/mL epidermal growth factor (Sigma-Aldrich, St. Louis, MO) and 2% fetal bovine serum. 3D cultures were maintained with media and/or drug-treatment changes every second day, and photographs were taken at the end of the 5th day. The size of single cell colonies was estimated with ImageJ (Version 1.51).

T2 sequence (P11362 22-822): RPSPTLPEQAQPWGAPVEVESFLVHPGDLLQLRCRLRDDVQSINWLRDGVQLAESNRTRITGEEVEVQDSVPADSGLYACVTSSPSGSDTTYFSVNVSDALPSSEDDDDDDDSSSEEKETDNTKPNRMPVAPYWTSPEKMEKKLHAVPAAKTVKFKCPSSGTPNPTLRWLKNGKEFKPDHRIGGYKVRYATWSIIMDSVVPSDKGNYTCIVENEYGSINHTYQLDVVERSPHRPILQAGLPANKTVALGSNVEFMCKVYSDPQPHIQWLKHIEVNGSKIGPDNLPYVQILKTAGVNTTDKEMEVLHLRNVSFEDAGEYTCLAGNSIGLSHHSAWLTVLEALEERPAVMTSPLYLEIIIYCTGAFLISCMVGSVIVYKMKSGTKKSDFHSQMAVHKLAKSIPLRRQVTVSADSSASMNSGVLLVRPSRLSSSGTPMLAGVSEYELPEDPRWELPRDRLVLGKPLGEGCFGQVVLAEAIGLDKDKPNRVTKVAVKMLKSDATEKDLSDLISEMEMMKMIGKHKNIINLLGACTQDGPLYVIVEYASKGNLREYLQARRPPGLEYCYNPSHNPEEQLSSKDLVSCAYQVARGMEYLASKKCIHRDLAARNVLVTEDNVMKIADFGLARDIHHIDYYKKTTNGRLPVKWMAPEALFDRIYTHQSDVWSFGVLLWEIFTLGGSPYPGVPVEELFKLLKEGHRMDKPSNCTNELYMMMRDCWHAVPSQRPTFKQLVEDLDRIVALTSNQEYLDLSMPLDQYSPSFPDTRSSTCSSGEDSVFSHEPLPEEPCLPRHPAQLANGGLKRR
T1 sequence (P00519 whole entry): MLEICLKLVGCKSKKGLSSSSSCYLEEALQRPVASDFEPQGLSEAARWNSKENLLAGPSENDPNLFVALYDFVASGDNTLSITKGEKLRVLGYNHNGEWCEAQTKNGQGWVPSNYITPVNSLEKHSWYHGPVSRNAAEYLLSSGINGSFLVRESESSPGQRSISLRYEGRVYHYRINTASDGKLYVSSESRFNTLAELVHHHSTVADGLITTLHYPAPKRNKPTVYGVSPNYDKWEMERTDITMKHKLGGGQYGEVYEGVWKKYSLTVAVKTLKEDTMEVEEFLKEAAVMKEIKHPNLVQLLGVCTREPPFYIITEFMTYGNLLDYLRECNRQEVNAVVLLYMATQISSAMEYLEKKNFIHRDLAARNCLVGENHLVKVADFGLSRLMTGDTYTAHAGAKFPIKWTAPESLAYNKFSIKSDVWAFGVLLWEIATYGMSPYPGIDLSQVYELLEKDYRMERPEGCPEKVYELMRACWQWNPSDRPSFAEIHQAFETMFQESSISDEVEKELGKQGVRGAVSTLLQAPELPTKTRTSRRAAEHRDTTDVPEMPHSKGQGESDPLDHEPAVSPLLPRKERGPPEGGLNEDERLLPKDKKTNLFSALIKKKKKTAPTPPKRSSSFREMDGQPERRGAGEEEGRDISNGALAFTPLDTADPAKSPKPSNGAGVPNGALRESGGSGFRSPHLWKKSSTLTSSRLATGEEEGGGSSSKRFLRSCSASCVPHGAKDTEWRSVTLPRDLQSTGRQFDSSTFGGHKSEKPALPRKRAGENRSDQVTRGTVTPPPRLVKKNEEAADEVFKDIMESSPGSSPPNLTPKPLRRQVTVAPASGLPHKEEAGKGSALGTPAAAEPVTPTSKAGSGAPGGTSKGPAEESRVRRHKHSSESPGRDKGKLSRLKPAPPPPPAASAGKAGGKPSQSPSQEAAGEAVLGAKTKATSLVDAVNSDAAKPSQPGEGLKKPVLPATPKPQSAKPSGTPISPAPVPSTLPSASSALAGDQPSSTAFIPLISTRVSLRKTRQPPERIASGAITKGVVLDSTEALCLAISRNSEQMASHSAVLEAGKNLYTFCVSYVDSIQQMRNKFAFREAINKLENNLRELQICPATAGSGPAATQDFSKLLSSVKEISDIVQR

Compound	% Ctrl ABL1-phosphorylated (ABL1-phosphorylated) [% Ctrl]	IC50 (FGFR1 [1]; 100 μM ATP) [nM]	reduction of inhibitory activity on FGFR compared to Ponatinib (FGFR1 [1]; PHI1 versus Ponatinib) [fold]	IC50 (PDFGRα) [nM]	inhibition of MEK phosphorylation by BRAF^V600E (in words) (BRAF^V600E)	% Ctrl AXL (AXL) [% Ctrl]	% Ctrl PKAC-alpha (PKAC-alpha) [% Ctrl]	% Ctrl FGFR1 (FGFR1 [2]) [% Ctrl]	elimination half-life [3] [h]	maximum plasma levels [3]	% Ctrl JAK2(JH1domain-catalytic) [4] [% Ctrl]	% Ctrl EPHA2 (EPHA2) [% Ctrl]	% Ctrl p38-alpha (p38-alpha) [% Ctrl]	% Ctrl EGFR(L858R) (EGFR(L858R)) [% Ctrl]	% Ctrl ERBB4 (ERBB4) [% Ctrl]	inhibition of colony formation in 3D culture (in words) [5]
Cc1ccc(C(=O)Nc2ccc(CNCCN3CCOCC3)c(C(F)(F)F)c2)cc1C#Cc1cnc2cccnn12 [PHI1]	0.1	624 ± 25	43	8.3 ± 1.5												
Cc1ccc(C(=O)Nc2ccc(CN3CCN(C)CC3)c(C(F)(F)F)c2)cc1C#Cc1cnc2cccnn12 [Ponatinib, 3-[2-(imidazo[1,2-b]pyridazin-3-yl)ethynyl]-4-methyl-N-{4-[(4-methylpiperazin-1-yl)methyl]-3-(trifluoromethyl)phenyl}benzamide]					potent inhibitor	14	8.1	0.15	> 24	~ 100 nM	9.5	0	0	19	27	increased efficacy to inhibit colony formation as compared to Vemurafenib

Source: publication PMC7462985, “Inhibitors of BRAF dimers using an allosteric site” (Nature Communications, 2020)
